Measured values reported in ChEMBL document CHEMBL5528016, “Design, synthesis and evaluation of novel deferasirox derivatives with high antifungal potency in vitro and in vivo” (Eur J Med Chem, 2024).
Values after ≈ are worked out from the molar mass of the structure shown.

What was measured:
Cryptococcus neoformans [1] = test: Antifungal activity against Cryptococcus neoformans H99 assessed as reduction in fungal growth incubated for 72 hrs by broth microdilution method; type: functional
[Candida] auris = Antifungal activity against Candida auris D12 assessed as reduction in fungal growth incubated for 72 hrs by broth microdilution method; type: functional; settings: Candidozyma auris
Candida parapsilosis = test: Antifungal activity against Candida parapsilosis ATCC 22019 assessed as reduction in fungal growth incubated for 72 hrs by broth microdilution method; type: functional; settings: Lodderomyces parapsilosis
Candida albicans = test: Antifungal activity against Candida albicans SC5314 assessed as reduction in fungal growth incubated for 72 hrs by broth microdilution method; type: functional
Pichia kudriavzevii = test: Antifungal activity against Pichia kudriavzevii 4946 assessed as reduction in fungal growth incubated for 72 hrs by broth microdilution method; type: functional
Nakaseomyces glabratus = test: Antifungal activity against Candida glabrata 537 assessed as reduction in fungal growth incubated for 72 hrs by broth microdilution method; type: functional
Candida tropicalis = test: Antifungal activity against Candida tropicalis 2718 assessed as reduction in fungal growth incubated for 72 hrs by broth microdilution method; type: functional
[2] = Metabolic stability in mouse liver microsomes assessed as half life; type: ADME, Microsome
[3] = Metabolic stability in mouse liver microsomes assessed as intrinsic clearance; type: ADME, Microsome; settings: read-out: CLH
[4] = Metabolic stability in mouse liver microsomes assessed as elimination rate constant; type: ADME, Microsome
Cryptococcus neoformans [5] = test: Potency index, ratio of deferasirox MIC to test compound for antifungal activity against Cryptococcus neoformans H99 incubated for 72 hrs by broth microdilution method; type: functional

| SMILES | MIC (Cryptococcus neoformans [1]) [µg/mL] | also measured |
| --- | --- | --- |
| O=C1C[C@@H](NC(=O)c2ccc(-n3nc(-c4ccccc4O)nc3-c3ccccc3O)cc2)CO1 | > 64 | – |
| CN(C)CCNC(=O)c1ccc(-n2nc(-c3ccccc3O)nc2-c2ccccc2O)cc1 | 4 (≈ 9.02 µM) | – |
| O=C(NCCc1ccccn1)c1ccc(-n2nc(-c3ccccc3O)nc2-c2ccccc2O)cc1 | 0.5 (≈ 1.05 µM) | MIC ([Candida] auris): > 64 µg/mL; MIC (Candida parapsilosis): > 64 µg/mL; MIC (Candida albicans): 32 µg/mL (≈ 67 µM); MIC (Pichia kudriavzevii): 4 µg/mL (≈ 8.38 µM); MIC (Nakaseomyces glabratus): < 0.125 µg/mL; MIC (Candida tropicalis): 64 µg/mL (≈ 134 µM) |
| Cc1ncc2n1-c1ccc(Cl)cc1C(c1ccccc1F)=NC2 [MIDAZOLAM] | – | half-life [2]: 4.67 min; microsomal CLint [3]: 742 µL/min/mg; k el [4]: 0.00247 s⁻¹ |
| O=C(NNCc1ccccc1)c1ccc(-n2nc(-c3ccccc3O)nc2-c2ccccc2O)cc1 | 8 (≈ 16.8 µM) | – |
| O=C1CC(NC(=O)c2ccc(-n3nc(-c4ccccc4O)nc3-c3ccccc3O)cc2)CN1 (configuration not stated) | 4 (≈ 8.78 µM) | – |
| O=C(NCc1ncccn1)c1ccc(-n2nc(-c3ccccc3O)nc2-c2ccccc2O)cc1 | 4 (≈ 8.61 µM) | – |
| O=C(NCCCn1ccnc1)c1ccc(-n2nc(-c3ccccc3O)nc2-c2ccccc2O)cc1 | 8 (≈ 16.6 µM) | – |
| CS(=O)(=O)CCNC(=O)c1ccc(-n2nc(-c3ccccc3O)nc2-c2ccccc2O)cc1 | 1 (≈ 2.09 µM) | – |
| O=C(NCCOc1ccccn1)c1ccc(-n2nc(-c3ccccc3O)nc2-c2ccccc2O)cc1 | 4 (≈ 8.1 µM) | – |
| O=C(NCc1ccco1)c1ccc(-n2nc(-c3ccccc3O)nc2-c2ccccc2O)cc1 | 4 (≈ 8.84 µM) | – |
| CN1CCN(CCNC(=O)c2ccc(-n3nc(-c4ccccc4O)nc3-c3ccccc3O)cc2)CC1 | 1 (≈ 2.01 µM) | – |
| O=C(NN1CCOCC1)c1ccc(-n2nc(-c3ccccc3O)nc2-c2ccccc2O)cc1 | 2 (≈ 4.37 µM) | – |
| O=C(NCC(=O)N1CCOCC1)c1ccc(-n2nc(-c3ccccc3O)nc2-c2ccccc2O)cc1 | 1 (≈ 2 µM) | – |
| O=C(NCCN1CCCCC1)c1ccc(-n2nc(-c3ccccc3O)nc2-c2ccccc2O)cc1 | 1 (≈ 2.07 µM) | – |
| CC(C)(O)CNC(=O)c1ccc(-n2nc(-c3ccccc3O)nc2-c2ccccc2O)cc1 | 2 (≈ 4.5 µM) | – |
| O=C(NCC1CCS(=O)(=O)C1)c1ccc(-n2nc(-c3ccccc3O)nc2-c2ccccc2O)cc1 (configuration not stated) | 8 (≈ 15.9 µM) | – |
| O=C(N[C@H]1CCOC1)c1ccc(-n2nc(-c3ccccc3O)nc2-c2ccccc2O)cc1 | 4 (≈ 9.04 µM) | – |
| O=C(NC1CS(=O)(=O)C1)c1ccc(-n2nc(-c3ccccc3O)nc2-c2ccccc2O)cc1 | 1 (≈ 2.1 µM) | – |
| O=C(NCCN1CCOCC1)c1cccc(-n2nc(-c3ccccc3O)nc2-c2ccccc2O)c1 | 1 (≈ 2.06 µM) | – |
| O=C(NCc1ccccn1)c1ccc(-n2nc(-c3ccccc3O)nc2-c2ccccc2O)cc1 | 8 (≈ 17.3 µM) | – |
| O=C(NCCNc1ncccn1)c1ccc(-n2nc(-c3ccccc3O)nc2-c2ccccc2O)cc1 | 0.5 (≈ 1.01 µM) | MIC ([Candida] auris): > 64 µg/mL; MIC (Candida parapsilosis): > 64 µg/mL; MIC (Candida albicans): 32 µg/mL (≈ 64.8 µM); MIC (Pichia kudriavzevii): 16 µg/mL (≈ 32.4 µM); MIC (Nakaseomyces glabratus): 1 µg/mL (≈ 2.03 µM); MIC (Candida tropicalis): 8 µg/mL (≈ 16.2 µM) |
| CC(C)(O)CCNC(=O)c1ccc(-n2nc(-c3ccccc3O)nc2-c2ccccc2O)cc1 | 1 (≈ 2.18 µM) | Ratio (Cryptococcus neoformans [5]): 2; MIC ([Candida] auris): > 64 µg/mL; MIC (Candida parapsilosis): > 64 µg/mL; MIC (Candida albicans): 16 µg/mL (≈ 34.9 µM); MIC (Pichia kudriavzevii): 4 µg/mL (≈ 8.72 µM); MIC (Nakaseomyces glabratus): < 0.125 µg/mL; MIC (Candida tropicalis): 4 µg/mL (≈ 8.72 µM) |
| O=C(NCc1ccccc1)c1ccc(-n2nc(-c3ccccc3O)nc2-c2ccccc2O)cc1 | 4 (≈ 8.65 µM) | – |
| O=C(NCc1cccnc1)c1ccc(-n2nc(-c3ccccc3O)nc2-c2ccccc2O)cc1 | 8 (≈ 17.3 µM) | – |
| CNC(=O)c1ccc(-n2nc(-c3ccccc3O)nc2-c2ccccc2O)cc1 | 1 (≈ 2.59 µM) | – |
| CN1CCCC(CNC(=O)c2ccc(-n3nc(-c4ccccc4O)nc3-c3ccccc3O)cc2)C1 (configuration not stated) | 0.25 (≈ 0.517 µM) | MIC ([Candida] auris): > 64 µg/mL; MIC (Candida parapsilosis): 64 µg/mL (≈ 132 µM); MIC (Candida albicans): 32 µg/mL (≈ 66.2 µM); MIC (Pichia kudriavzevii): 16 µg/mL (≈ 33.1 µM); MIC (Nakaseomyces glabratus): < 0.125 µg/mL; MIC (Candida tropicalis): 32 µg/mL (≈ 66.2 µM) |
| O=C(Nc1ccccc1)c1ccc(-n2nc(-c3ccccc3O)nc2-c2ccccc2O)cc1 | 4 (≈ 8.92 µM) | – |
| O=C(NCc1ccncc1)c1ccc(-n2nc(-c3ccccc3O)nc2-c2ccccc2O)cc1 | 4 (≈ 8.63 µM) | – |
| CCCNC(=O)c1ccc(-n2nc(-c3ccccc3O)nc2-c2ccccc2O)cc1 | 4 (≈ 9.65 µM) | – |
